The source of these data is ChEMBL document CHEMBL4028801, “A multifactorial approach to hepatobiliary transporter assessment enables improved therapeutic compound development” (Toxicol Sci, 2013).

SMILES strings stand for the structures.

For data set [1], the target named is Bile salt export pump (Homo sapiens, UniProt O95342). Put plainly: Inhibition of human BSEP overexpressed in Sf9 cell membrane vesicles assessed as uptake of [3H]-taurocholate in presence of ATP measured after 15 to 20 mins by membrane vesicle transport assay. It is filed as ADME, cell-based.
Bile salt export pump, sequence (O95342 whole entry): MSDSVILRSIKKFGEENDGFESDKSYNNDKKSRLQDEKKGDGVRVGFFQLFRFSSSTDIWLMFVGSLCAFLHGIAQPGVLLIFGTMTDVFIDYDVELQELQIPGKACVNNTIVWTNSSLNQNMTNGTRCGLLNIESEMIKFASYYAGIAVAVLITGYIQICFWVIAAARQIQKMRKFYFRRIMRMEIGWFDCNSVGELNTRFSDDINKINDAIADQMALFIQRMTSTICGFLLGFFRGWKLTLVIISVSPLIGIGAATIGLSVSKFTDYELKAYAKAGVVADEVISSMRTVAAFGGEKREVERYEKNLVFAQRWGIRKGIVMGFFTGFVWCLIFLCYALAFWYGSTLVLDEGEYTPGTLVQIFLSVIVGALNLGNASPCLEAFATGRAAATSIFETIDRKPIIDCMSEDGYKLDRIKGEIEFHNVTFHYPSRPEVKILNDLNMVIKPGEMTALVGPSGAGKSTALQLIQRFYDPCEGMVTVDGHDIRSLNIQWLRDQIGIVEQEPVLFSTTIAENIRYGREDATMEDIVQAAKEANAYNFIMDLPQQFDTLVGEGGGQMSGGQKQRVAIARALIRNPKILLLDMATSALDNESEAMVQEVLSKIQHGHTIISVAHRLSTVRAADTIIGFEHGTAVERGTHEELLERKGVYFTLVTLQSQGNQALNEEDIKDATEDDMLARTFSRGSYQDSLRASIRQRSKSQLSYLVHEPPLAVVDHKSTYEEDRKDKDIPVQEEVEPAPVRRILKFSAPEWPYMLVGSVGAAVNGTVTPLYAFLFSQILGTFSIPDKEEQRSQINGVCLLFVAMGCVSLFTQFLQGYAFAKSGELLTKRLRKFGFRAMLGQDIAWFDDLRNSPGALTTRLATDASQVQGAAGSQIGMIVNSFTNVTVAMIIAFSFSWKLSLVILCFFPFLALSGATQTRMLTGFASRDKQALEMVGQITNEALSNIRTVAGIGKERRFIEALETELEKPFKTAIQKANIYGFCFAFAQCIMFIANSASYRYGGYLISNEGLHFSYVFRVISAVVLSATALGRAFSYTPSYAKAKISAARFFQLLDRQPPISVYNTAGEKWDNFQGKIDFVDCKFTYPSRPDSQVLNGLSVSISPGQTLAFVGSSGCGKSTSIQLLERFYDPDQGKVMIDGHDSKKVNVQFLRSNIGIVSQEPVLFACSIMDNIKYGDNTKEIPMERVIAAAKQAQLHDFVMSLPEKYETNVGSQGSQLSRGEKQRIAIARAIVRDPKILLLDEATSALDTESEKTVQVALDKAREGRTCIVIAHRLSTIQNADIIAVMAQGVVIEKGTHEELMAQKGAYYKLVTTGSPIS
Data set [2] has as its target ATP-binding cassette sub-family C member 3 (Homo sapiens, UniProt O15438). Put plainly: Inhibition of human MRP3 overexpressed in Sf9 insect cell membrane vesicles assessed as uptake of [3H]-estradiol-17beta-D-glucuronide in presence of ATP and GSH measured after 10 mins by membrane vesicle transport assay. It is filed as ADME, cell-based.
For data set [3], the target named is T1, ATP-binding cassette sub-family C member 4 (Homo sapiens, UniProt O15439).
T1 sequence (O15439 whole entry): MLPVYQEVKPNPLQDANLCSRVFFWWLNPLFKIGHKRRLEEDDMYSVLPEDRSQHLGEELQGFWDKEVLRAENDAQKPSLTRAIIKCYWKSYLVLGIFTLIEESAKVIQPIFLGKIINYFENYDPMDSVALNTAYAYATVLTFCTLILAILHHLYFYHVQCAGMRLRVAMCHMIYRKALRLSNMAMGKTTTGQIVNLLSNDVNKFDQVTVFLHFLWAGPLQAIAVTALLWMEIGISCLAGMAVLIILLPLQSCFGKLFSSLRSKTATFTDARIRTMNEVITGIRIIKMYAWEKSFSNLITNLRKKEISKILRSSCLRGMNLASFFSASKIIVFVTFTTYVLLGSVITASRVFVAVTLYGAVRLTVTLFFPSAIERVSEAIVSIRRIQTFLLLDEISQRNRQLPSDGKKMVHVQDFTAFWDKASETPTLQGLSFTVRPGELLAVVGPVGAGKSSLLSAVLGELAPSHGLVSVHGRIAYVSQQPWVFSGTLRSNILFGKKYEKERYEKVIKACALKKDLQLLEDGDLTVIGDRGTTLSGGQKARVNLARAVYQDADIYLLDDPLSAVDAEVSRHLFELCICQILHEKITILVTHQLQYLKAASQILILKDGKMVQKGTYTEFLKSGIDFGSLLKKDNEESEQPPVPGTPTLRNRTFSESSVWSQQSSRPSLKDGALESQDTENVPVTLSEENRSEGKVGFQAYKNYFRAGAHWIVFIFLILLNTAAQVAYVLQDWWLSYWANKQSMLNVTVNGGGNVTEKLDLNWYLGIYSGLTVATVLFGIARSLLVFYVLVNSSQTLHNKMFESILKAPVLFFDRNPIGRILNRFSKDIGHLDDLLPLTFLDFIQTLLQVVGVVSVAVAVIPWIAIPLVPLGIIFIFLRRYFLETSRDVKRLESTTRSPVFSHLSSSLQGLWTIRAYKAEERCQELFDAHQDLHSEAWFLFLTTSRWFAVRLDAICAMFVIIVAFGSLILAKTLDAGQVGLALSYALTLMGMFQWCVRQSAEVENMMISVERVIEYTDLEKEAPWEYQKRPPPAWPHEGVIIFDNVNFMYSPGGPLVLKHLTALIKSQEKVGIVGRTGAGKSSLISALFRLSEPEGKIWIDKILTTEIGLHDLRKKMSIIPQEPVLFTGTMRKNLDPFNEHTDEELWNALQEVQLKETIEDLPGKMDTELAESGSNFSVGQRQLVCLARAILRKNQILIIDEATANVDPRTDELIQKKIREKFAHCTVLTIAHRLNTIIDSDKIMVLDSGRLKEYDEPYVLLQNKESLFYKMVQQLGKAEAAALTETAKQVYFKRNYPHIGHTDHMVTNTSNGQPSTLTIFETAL
Put plainly: Inhibition of human MRP4 overexpressed in Sf9 cell membrane vesicles assessed as uptake of [3H]-estradiol-17beta-D-glucuronide in presence of ATP and GSH measured after 20 mins by membrane vesicle transport assay. Type of data set: ADME, cell-based.

The nature of data set [4]: AUC in human at 15 to 120 mg, po QD after 24 hrs. It is filed as ADME, organism-based. As to conditions: in vivo.
Data set [5] is described as follows: Drug concentration at steady state in human at 15 to 120 mg, po QD after 24 hrs. It is filed as ADME, organism-based. As to conditions: in vivo, read-out: Css.
Data set [6] in a line: Ratio of drug concentration at steady state in human at 15 to 120 mg, po QD after 24 hrs to IC50 for human BSEP overexpressed in Sf9 insect cells. Type of data set: ADME, organism-based. As to conditions: in vivo.
A short description of data set [7]: Ratio of drug concentration at steady state in human at 15 to 120 mg, po QD after 24 hrs to IC50 for human MRP3 overexpressed in Sf9 insect cells. As to conditions: in vivo. Type of data set: ADME, organism-based.
Data set [8] is described as follows: Ratio of drug concentration at steady state in human at 15 to 120 mg, po QD after 24 hrs to IC50 for human MRP4 overexpressed in Sf9 insect cells. It is filed as ADME, organism-based. As to conditions: in vivo.
In data set [9] the target is ATP-binding cassette sub-family C member 2 (Homo sapiens, UniProt Q92887). Put plainly: Inhibition of human MRP2 overexpressed in Sf9 cell membrane vesicles assessed as uptake of [3H]-estradiol-17beta-D-glucuronide in presence of ATP and GSH measured after 20 mins by membrane vesicle transport assay.
ATP-binding cassette sub-family C member 2, sequence (Q92887 whole entry): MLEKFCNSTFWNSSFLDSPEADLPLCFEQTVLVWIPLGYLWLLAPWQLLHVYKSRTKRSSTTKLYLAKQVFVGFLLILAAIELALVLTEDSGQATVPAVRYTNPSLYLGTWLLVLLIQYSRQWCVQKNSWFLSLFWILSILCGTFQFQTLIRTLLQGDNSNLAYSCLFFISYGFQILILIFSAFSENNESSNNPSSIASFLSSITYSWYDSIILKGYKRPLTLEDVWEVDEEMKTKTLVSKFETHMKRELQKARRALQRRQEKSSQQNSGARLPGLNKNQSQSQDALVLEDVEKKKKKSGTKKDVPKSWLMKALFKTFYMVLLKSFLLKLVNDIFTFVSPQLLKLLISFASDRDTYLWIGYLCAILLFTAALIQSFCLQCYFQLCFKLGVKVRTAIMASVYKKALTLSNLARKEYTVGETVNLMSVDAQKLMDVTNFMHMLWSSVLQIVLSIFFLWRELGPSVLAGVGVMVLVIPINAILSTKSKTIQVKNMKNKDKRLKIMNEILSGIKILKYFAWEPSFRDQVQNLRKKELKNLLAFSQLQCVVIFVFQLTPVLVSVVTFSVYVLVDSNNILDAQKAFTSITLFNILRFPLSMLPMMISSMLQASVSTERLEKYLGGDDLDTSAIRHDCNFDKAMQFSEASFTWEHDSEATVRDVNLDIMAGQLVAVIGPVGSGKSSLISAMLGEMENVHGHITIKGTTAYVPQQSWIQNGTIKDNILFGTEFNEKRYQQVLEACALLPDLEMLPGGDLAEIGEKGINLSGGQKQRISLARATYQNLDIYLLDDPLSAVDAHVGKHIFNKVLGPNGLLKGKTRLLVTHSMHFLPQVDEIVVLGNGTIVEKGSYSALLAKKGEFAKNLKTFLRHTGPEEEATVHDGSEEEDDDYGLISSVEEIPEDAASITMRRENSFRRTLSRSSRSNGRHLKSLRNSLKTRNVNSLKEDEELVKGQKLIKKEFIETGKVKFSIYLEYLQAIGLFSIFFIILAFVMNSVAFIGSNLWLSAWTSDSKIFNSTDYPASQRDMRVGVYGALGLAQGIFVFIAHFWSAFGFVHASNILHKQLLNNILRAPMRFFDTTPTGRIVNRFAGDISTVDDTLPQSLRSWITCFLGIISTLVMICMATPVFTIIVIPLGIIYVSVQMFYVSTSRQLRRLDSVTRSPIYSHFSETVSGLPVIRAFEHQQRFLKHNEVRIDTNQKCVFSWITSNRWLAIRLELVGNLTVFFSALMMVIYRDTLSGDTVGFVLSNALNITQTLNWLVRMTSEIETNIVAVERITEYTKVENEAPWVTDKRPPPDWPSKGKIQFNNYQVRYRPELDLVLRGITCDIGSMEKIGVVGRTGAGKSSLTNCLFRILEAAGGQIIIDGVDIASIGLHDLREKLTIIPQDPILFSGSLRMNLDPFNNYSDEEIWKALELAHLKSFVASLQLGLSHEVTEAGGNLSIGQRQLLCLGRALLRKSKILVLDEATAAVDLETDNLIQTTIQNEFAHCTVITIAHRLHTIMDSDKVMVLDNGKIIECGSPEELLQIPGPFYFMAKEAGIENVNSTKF
Data set [10] can be described thus: AUC in human at 0.5 to 2 mg/kg, po QD after 24 hrs. Type of data set: ADME, organism-based. As to conditions: in vivo.
Data set [11] in a line: Drug concentration at steady state in human at 0.5 to 2 mg/kg, po QD after 24 hrs. It is filed as ADME, organism-based. As to conditions: in vivo, read-out: Css.
The nature of data set [12]: Ratio of drug concentration at steady state in human at 0.5 to 2 mg/kg, po QD after 24 hrs to IC50 for human BSEP overexpressed in Sf9 insect cells. Type of data set: ADME, organism-based. As to conditions: in vivo.
Data set [13] can be described thus: AUC in human at 20 to 100 mg, po QD or 60 mg, po BID after 12 hrs. Type of data set: ADME, organism-based. As to conditions: in vivo.
A short description of data set [14]: Drug concentration at steady state in human at 20 to 100 mg, po QD or 60 mg, po BID after 12 hrs. It is filed as ADME, organism-based. As to conditions: in vivo, read-out: Css.
The nature of data set [15]: Ratio of drug concentration at steady state in human at 20 to 100 mg, po QD or 60 mg, po BID after 12 hrs to IC50 for human BSEP overexpressed in Sf9 insect cells. It is filed as ADME, organism-based. As to conditions: in vivo.
The nature of data set [16]: AUC in human at 5 to 20 mg, iv after 24 hrs. Type of data set: ADME, organism-based. As to conditions: in vivo.
The test system of data set [17] is Homo sapiens. Put plainly: Drug concentration at steady state in human at 5 to 20 mg, iv after 24 hrs. It is filed as ADME, organism-based. As to conditions: in vivo.
Data set [18] in a line: AUC in human at 10 to 20 mg, po BID after 12 hrs. It is filed as ADME, organism-based. As to conditions: in vivo.
Data set [19] is described as follows: Drug concentration at steady state in human at 10 to 20 mg, po BID after 12 hrs. Type of data set: ADME, organism-based. As to conditions: in vivo, read-out: Css.
The nature of data set [20]: Ratio of drug concentration at steady state in human at 10 to 20 mg, po BID after 12 hrs to IC50 for human BSEP overexpressed in Sf9 insect cells. Type of data set: ADME, organism-based. As to conditions: in vivo.
Data set [21] is described as follows: Ratio of drug concentration at steady state in human at 10 to 20 mg, po BID after 12 hrs to IC50 for human MRP2 overexpressed in Sf9 insect cells. It is filed as ADME, organism-based. As to conditions: in vivo.
Data set [22] in a line: Ratio of drug concentration at steady state in human at 10 to 20 mg, po BID after 12 hrs to IC50 for human MRP4 overexpressed in Sf9 insect cells. As to conditions: in vivo. It is filed as ADME, organism-based.

ATP-binding cassette sub-family C member 3, sequence (O15438 whole entry): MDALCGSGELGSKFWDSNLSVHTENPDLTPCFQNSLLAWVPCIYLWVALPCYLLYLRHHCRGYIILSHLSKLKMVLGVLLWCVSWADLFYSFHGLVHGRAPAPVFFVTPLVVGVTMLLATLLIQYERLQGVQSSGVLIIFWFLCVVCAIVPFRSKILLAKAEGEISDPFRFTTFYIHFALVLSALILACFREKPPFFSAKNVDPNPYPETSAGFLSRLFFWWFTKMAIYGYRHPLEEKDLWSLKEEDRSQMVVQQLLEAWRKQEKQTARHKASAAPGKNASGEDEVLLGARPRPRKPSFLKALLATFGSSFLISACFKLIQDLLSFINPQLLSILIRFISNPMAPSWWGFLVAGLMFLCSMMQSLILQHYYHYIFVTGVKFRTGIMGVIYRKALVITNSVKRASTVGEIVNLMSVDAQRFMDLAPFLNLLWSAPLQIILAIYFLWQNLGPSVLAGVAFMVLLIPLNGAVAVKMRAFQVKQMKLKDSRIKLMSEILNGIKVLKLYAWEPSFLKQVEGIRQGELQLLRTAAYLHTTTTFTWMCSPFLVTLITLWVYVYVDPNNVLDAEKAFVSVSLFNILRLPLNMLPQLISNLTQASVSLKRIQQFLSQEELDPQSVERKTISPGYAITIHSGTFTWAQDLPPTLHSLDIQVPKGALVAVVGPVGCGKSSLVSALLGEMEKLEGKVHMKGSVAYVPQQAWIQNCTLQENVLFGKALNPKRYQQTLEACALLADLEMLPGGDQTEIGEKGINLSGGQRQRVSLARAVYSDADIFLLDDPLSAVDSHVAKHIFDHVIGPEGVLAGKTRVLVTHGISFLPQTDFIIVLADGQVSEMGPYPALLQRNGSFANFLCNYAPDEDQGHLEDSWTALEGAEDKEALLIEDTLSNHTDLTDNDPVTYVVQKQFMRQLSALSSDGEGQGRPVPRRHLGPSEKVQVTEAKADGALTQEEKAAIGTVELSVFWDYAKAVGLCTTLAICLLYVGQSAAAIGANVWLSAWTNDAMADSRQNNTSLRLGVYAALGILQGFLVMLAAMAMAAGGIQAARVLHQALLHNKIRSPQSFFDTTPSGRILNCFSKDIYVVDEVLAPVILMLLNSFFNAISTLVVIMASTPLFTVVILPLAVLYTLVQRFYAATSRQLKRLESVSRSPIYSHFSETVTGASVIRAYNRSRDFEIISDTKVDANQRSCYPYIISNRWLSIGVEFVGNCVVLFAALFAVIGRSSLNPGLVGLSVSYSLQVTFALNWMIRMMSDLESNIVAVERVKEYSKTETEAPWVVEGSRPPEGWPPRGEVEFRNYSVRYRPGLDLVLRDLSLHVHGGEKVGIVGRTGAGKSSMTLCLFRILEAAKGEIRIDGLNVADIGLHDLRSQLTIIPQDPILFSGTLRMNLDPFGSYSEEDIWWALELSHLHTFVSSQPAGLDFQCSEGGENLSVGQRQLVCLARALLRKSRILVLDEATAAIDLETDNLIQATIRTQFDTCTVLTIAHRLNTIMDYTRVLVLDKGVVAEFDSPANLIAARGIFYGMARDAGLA

A word on the IC50: it is the concentration needed to halve the response being measured. In general, AUC refers to concentration integrated over time. Higher therefore signals high exposure. Take `COc1ccc2c(c1)C(=O)N(CCc1ccc(S(=O)(=O)NC(=O)NC3CCCCC3)cc1)C(=O)C2(C)C` [GLIQUIDONE]: the figures for the 50% inhibitory concentration (IC50) in [1], in [2] and in data set [3] were 11.6 µM, 23.9 µM and 6.3 µM, respectively. The same molecule gave an exposure (AUC) at 24 h in data set [4] of 9.67 µM·h. In data set [5], the concentration at 24 h came to 403 nM. Moreover, the Ratio in data set [6] was 0.035; in data set [7], 0.017; in [8], 0.064.
Turning to `CC1=C(/C=C/C(C)=C/C=C/C(C)=C\C(=O)O)C(C)(C)CCC1` [ISOTRETINOIN], the IC50 was 37.1 µM in data set [1], more than 133 µM in [9], more than 133 µM in data set [2] and more than 133 µM in [3]. Besides, in data set [10], the AUC at 24 h stood at 33.3 µM·h. The concentration at 24 h in [11] was 1390 nM. Besides, in data set [12], the Ratio is listed as 0.037.
As for `COCCCOc1ccnc(C[S+]([O-])c2nc3ccccc3[n-]2)c1C.[Na+]` (stereo unspecified) [RABEPRAZOLE SODIUM], the 50% inhibitory concentration (IC50) in [1] was 33.9 µM; in [9] it was more than 133 µM; in data set [2] it was more than 133 µM; in data set [3], more than 133 µM. In [13], this molecule had an AUC at 12 h of 14.5 µM·h. Also, the concentration at 12 h in [14] was 1210 nM. Besides, the Ratio in data set [15] is given as 0.036.
For `CO[C@H]1C[C@@H]2CC[C@@H](C)[C@@](O)(O2)C(=O)C(=O)N2CCCC[C@H]2C(=O)O[C@H]([C@H](C)C[C@@H]2CC[C@@H](OC(=O)C(C)(CO)CO)[C@H](OC)C2)CC(=O)[C@H](C)/C=C(\C)[C@@H](O)[C@@H](OC)C(=O)[C@H](C)C[C@H](C)/C=C/C=C/C=C/1C` [TEMSIROLIMUS], the IC50 in [9] turned out to be 17.6 µM; in data set [2], 71.9 µM; in data set [3] it was 44 µM. Moreover, the AUC at 24 h in [16] was found to be 1.91 µM·h. The same molecule registered a Css in [17] of 79 nM.
With `COc1cc(C(=O)NS(=O)(=O)c2ccccc2C)ccc1Cc1cn(C)c2ccc(NC(=O)OC3CCCC3)cc12` [ZAFIRLUKAST], the IC50 in data set [1] is 11.1 µM; in data set [9], 58.8 µM; in [2] it was more than 133 µM; in data set [3], 12.1 µM. The molecule also came in with an AUC at 12 h in data set [18] of 3.6 µM·h. Also, the concentration at 12 h in data set [19] was determined as 300 nM. The Ratio in [20] was found to be 0.027; in data set [21], 0.005; in [22], 0.025.
